The values below come from patent publication US20240383875A1, “Benzimidazole Pyridine Derivatives” (Hoffmann-La Roche Inc., priority 2022, published 2024).

What all share (format): biochemical
One assay concerns the target SIK2 (Homo sapiens, UniProt Q9H0K1). Briefly: Enzymatic activity assay SIK2, RapidFire mass spectrometry (phosphorylation of CHK-peptide). The note with it: RapidFire MS, inhibition of SIK2; read-out: SIK2 RF IC50. In short, it runs like this:
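SIK2 (0.5 nM) in pH 7.0 HEPES buffer with 10 mM Mg acetate phosphorylates CHK-peptide (10 μM solution) with 100 μM ATP solution, 45 min ambient, then formic acid quench.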

The next assay addresses SIK3 (Homo sapiens, UniProt Q9Y2K2). Briefly: Enzymatic activity assay SIK3, RapidFire mass spectrometry (phosphorylation of CHK-peptide). The conditions noted are these: RapidFire MS, inhibition of SIK3; read-out: SIK3 RF IC50. In short, it runs like this:
(§1)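 Compounds (12-point, 3-fold, generally 30 μM to 170 pM) were pre-incubated 30 min at ambient temperature with SIK1 (5 nM), SIK2 (0.5 nM) or SIK3 (1.5 nM) in HEPES pH 7.0/magnesium acetate buffer. CHK-peptide (10 μM solution) and ATP (100 μM solution) were then added for 45 min before formic acid quench.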

For the next assay, the target named is SIK1 (Homo sapiens, UniProt P57059). Briefly: Enzymatic activity assay SIK1, RapidFire mass spectrometry (phosphorylation of CHK-peptide). The note with it: RapidFire MS, inhibition of SIK1; read-out: SIK1 RF IC50. The method, boiled down:
as §1

A value given as a limit tells only on which side of the number the result lay.

SIK2, sequence (Q9H0K1 whole entry): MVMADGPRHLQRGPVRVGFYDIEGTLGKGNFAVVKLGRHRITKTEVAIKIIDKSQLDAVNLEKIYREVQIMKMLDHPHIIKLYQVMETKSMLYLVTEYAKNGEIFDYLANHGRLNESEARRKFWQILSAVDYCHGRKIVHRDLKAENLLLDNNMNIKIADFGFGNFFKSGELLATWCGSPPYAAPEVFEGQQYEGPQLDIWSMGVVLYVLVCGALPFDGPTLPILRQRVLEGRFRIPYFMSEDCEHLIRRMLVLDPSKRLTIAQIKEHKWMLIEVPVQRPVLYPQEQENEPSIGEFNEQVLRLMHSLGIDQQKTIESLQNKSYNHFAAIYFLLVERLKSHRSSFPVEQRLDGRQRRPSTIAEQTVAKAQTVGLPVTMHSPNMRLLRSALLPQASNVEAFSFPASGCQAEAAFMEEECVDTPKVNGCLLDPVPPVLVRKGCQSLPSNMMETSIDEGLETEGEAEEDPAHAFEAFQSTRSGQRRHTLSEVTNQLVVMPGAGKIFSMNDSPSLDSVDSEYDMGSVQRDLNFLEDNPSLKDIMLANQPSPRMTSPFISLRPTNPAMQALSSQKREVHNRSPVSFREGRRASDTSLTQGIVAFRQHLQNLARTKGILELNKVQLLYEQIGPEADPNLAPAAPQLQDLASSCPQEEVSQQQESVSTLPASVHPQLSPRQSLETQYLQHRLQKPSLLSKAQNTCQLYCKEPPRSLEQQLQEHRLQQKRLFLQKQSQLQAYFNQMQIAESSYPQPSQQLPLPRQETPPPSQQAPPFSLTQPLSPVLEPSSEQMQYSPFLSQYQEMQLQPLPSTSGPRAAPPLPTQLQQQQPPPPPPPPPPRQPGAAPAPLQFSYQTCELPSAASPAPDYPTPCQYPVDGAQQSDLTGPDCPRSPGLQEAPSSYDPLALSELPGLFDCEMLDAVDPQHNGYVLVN
SIK3, sequence (Q9Y2K2 whole entry): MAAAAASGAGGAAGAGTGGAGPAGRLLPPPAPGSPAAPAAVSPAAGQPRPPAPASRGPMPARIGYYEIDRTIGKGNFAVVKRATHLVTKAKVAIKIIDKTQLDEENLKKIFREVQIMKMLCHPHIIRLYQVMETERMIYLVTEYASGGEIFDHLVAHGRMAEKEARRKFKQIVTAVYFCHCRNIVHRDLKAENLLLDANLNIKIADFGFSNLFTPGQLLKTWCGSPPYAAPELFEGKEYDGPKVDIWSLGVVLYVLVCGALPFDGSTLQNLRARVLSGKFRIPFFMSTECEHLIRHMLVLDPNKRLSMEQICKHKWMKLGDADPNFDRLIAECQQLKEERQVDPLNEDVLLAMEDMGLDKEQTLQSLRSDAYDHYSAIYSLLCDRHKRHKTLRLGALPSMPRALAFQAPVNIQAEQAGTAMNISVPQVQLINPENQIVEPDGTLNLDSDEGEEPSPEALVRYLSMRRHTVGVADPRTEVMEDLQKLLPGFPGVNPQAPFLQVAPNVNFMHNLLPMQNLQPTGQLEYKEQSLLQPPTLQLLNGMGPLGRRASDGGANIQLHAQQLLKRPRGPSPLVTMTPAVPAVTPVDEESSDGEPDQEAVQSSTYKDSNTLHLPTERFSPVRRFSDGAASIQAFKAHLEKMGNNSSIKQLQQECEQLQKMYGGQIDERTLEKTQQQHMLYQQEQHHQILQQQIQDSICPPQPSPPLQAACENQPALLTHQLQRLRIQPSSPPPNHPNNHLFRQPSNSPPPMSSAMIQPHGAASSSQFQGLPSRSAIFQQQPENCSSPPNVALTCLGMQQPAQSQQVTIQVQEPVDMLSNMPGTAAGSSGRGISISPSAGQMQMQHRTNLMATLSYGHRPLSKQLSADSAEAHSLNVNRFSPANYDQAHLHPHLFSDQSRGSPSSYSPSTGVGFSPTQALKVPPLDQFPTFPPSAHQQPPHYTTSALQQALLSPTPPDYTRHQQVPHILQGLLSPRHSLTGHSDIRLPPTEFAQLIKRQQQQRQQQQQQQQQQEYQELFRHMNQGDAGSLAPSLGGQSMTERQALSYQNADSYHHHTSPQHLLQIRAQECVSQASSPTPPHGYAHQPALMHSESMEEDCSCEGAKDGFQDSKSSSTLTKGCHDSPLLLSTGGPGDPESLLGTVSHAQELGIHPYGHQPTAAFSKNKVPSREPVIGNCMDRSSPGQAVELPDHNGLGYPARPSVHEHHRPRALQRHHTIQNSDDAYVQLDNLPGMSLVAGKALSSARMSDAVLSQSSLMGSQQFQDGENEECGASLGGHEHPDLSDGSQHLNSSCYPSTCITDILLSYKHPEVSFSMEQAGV
SIK1, sequence (P57059 whole entry): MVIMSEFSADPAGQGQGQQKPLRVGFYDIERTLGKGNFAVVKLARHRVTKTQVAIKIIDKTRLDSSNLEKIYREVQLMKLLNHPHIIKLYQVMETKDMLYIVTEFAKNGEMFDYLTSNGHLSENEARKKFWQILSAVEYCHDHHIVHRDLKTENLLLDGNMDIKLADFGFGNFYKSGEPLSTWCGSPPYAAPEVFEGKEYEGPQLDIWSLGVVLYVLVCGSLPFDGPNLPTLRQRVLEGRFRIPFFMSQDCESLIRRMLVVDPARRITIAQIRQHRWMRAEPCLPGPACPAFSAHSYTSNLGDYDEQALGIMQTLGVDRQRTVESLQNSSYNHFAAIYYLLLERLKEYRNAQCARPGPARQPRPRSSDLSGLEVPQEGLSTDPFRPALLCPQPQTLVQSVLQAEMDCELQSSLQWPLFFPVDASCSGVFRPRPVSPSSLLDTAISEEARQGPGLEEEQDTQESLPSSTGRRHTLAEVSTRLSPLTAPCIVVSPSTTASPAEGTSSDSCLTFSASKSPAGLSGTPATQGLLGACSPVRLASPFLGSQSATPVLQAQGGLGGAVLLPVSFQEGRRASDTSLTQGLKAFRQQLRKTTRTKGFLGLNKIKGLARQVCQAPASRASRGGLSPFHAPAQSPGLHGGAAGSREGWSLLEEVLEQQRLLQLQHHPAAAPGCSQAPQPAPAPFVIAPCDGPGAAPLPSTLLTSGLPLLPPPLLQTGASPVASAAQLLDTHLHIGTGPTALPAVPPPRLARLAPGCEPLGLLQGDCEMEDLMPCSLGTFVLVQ

What is called IC50 is the concentration needed to halve the response being measured. Regarding `CCn1nc(C(F)(F)F)cc1-c1nc(-n2cnc3cc(Nc4ccc(C)nn4)ccc32)ccc1C(C)O` (stereo not drawn) [Example 250, 1-[2-[2-Ethyl-5-(trifluoromethyl)pyrazol-3-yl]-6-[5-[(6-methylpyridazin-3-yl)amino]benzimidazol-1-yl]-3-pyridyl]ethanol], the IC50 on SIK2 worked out at 0.0252 µM; at SIK3 it was 0.0048 µM; on SIK1 it was 0.985 µM.

Take `Cc1cc(C#N)nn1-c1nc(-n2cnc3cc(N[C@H]4CNC[C@H]4F)c(F)cc32)ccc1C(C)O` (stereo partly drawn) [Example 166, 1-[6-[6-Fluoro-5-[[(3S,4R)-4-fluoropyrrolidin-3-yl]amino]benzimidazol-1-yl]-3-(1-hydroxyethyl)-2-pyridyl]-5-methyl-pyrazole-3-carbonitrile; formic acid]: the figures for the IC50 on SIK2, on SIK3 and on SIK1 were 0.0832 µM, 0.0408 µM and 0.681 µM, respectively.

With `COc1cc2ncn(-c3ccc(C(C)O)c(-c4cccc(Cl)c4F)n3)c2cc1OC` (stereo not drawn) [Example 20, 1-(2-(3-Chloro-2-fluorophenyl)-6-(5,6-dimethoxy-1H-benzo[d]imidazol-1-yl)pyridin-3-yl)ethan-1-ol], the half-inhibitory concentration (IC50) turned out to be 0.005 µM at SIK2, 0.0198 µM on SIK3 and 0.012 µM at SIK1.

As for `COc1cc2c(cc1Nc1cnc(C)nc1)ncn2-c1ccc([C@H](C)O)c(-n2nc(OC(F)F)cc2C)n1` [Example 400, (1S)-1-[2-[3-(difluoromethoxy)-5-methyl-pyrazol-1-yl]-6-[6-methoxy-5-[(2-methylpyrimidin-5-yl)amino]benzimidazol-1-yl]-3-pyridyl]ethanol], the IC50 turned out to be 0.0006 µM at SIK2, 0.0078 µM on SIK3 and 0.002 µM on SIK1.

For “N-[1-[6-[3-(difluoromethyl)-5-methyl-pyrazol-1-yl]-5-(1-hydroxyethyl)-2-pyridyl]-6-fluoro-benzimidazol-5-yl] cyclopropanecarboxamide [Example 361]”, the 50% inhibitory concentration (IC50) on SIK2 is 0.0639 µM; on SIK3, 0.0511 µM; at SIK1 it was 0.321 µM.

Consider `Cc1ccc(Nc2ccc3c(c2)ncn3-c2ccc(C(C)O)c(-c3cn(CC4CCC4)nc3C)n2)nn1` (stereo not drawn) [Example 274, 1-[2-[1-(Cyclobutylmethyl)-3-methyl-pyrazol-4-yl]-6-[5-[(6-methylpyridazin-3-yl)amino]benzimidazol-1-yl]-3-pyridyl]ethanol], for which the IC50 on SIK2 was 0.0012 µM; at SIK3, 0.0011 µM; at SIK1, 0.12 µM.

For the compound `Cc1ccc(Nc2ccc3c(c2)ncn3-c2ccc(C(C)O)c(N3C[C@@H](C#N)C[C@H]3C)n2)nn1` (stereo partly drawn) [Example 254, (3S,5R)-1-[3-(1-hydroxyethyl)-6-[5-[(6-methylpyridazin-3-yl)amino]benzimidazol-1-yl]-2-pyridyl]-5-methyl-pyrrolidine-3-carbonitrile], the values for the IC50 on SIK2, on SIK3 and on SIK1 were 0.15 µM, 0.0373 µM and 5.11 µM, respectively.

On to `Cc1ccc(Nc2ccc3c(c2)ncn3-c2ccc(C(C)O)c(-c3cn(CC(F)(F)F)nc3C)n2)nn1` (stereo not drawn) [Example 143, 1-[6-[5-[(6-Methylpyridazin-3-yl)amino]benzimidazol-1-yl]-2-[3-methyl-1-(2,2,2-trifluoroethyl)pyrazol-4-yl]-3-pyridyl]ethanol], for which the IC50 on SIK2 stood at 0.0007 µM; at SIK3, 0.0013 µM; at SIK1, 0.103 µM.

On to `CCn1ncc(-c2nc(-n3cnc4cc(Nc5ccc(C)nn5)ccc43)ccc2C(C)O)c1C` (stereo not drawn) [Example 271, 1-[2-(1-Ethyl-5-methyl-pyrazol-4-yl)-6-[5-[(6-methylpyridazin-3-yl)amino]benzimidazol-1-yl]-3-pyridyl]ethanol; formic acid], for which the IC50 at SIK2 was determined as 0.0073 µM; at SIK3, 0.0021 µM; on SIK1 it was 0.895 µM.

As to `Cc1cc(C#N)nn1-c1nc(-n2cnc3cc(CN4CCCC4=O)ccc32)ccc1C(C)O` (stereo not drawn) [Example 213, 1-[3-(1-Hydroxyethyl)-6-[5-[(2-oxopyrrolidin-1-yl)methyl]benzimidazol-1-yl]-2-pyridyl]-5-methyl-pyrazole-3-carbonitrile], the figures for the IC50 at SIK2, on SIK3 and at SIK1 were 1.52 µM, 0.174 µM and 7.58 µM, respectively.

In the case of `CCC(O)c1ccc(-n2cnc3cc(OC)c(OC)cc32)nc1-c1cccc(Cl)c1` (stereo not drawn) [Example 24, 1-(2-(3-Chlorophenyl)-6-(5,6-dimethoxy-1H-benzo[d]imidazol-1-yl)pyridin-3-yl)propan-1-ol], the IC50 at SIK2 came out at 0.192 µM; on SIK3, 0.727 µM; on SIK1 it was 0.353 µM.

For the compound `Cc1cc(C#N)nn1-c1nc(-n2cnc3cc(N4CCN(C5COC5)CC4)c(Br)cc32)ccc1C(C)O` (stereo not drawn) [Example 130, 1-[6-[6-Bromo-5-[4-(oxetan-3-yl)piperazin-1-yl]benzimidazol-1-yl]-3-(1-hydroxyethyl)-2-pyridyl]-5-methyl-pyrazole-3-carbonitrile], the IC50 on SIK2 worked out at 0.215 µM; on SIK3 it was 0.339 µM; on SIK1, 0.589 µM.

On to `Cc1ccc(Nc2ccc3c(c2)ncn3-c2ccc(C(C)O)c(-c3cc(C(F)(F)F)n[nH]c3=O)n2)nn1` (stereo not drawn) [Example 223, 5-[3-(1-Hydroxyethyl)-6-[5-[(6-methylpyridazin-3-yl)amino]benzimidazol-1-yl]-2-pyridyl]-3-(trifluoromethyl)-1H-pyridazin-6-one; formic acid], for which the IC50 was 1.57 µM on SIK2, 0.335 µM on SIK3 and above 30 µM on SIK1.

Consider `Cc1ccc(Nc2cc3ncn(-c4ccc([C@H](C)O)c(-n5nc(C#N)cc5C)n4)c3cc2F)nn1` [Example 236, 1-[6-[6-Fluoro-5-[(6-methylpyridazin-3-yl)amino]benzimidazol-1-yl]-3-[(1S)-1-hydroxyethyl]-2-pyridyl]-5-methyl-pyrazole-3-carbonitrile], for which the figures for the IC50 at SIK2, on SIK3 and on SIK1 were 0.0003 µM, 0.0003 µM and 0.084 µM, respectively.

Turning to `Cc1ccc(Nc2cc3ncn(-c4ccc([C@H](C)O)c(-n5nc(C#N)cc5C)n4)c3cc2OC(F)F)nn1` [Example 402, 1-[6-[6-(difluoromethoxy)-5-[(6-methylpyridazin-3-yl)amino]benzimidazol-1-yl]-3-[(1S)-1-hydroxyethyl]-2-pyridyl]-5-methyl-pyrazole-3-carbonitrile], the IC50 on SIK2 was 0.0002 µM; on SIK3, 0.0003 µM; on SIK1, 0.005 µM.

`Cc1ccc(Nc2ccc3ncn(-c4ccc(CO)c(-n5nc(C#N)cc5C)n4)c3c2)nn1` [Example 269, 5-Methyl-1-[3-methylol-6-[6-[(6-methylpyridazin-3-yl)amino]benzimidazol-1-yl]-2-pyridyl]pyrazole-3-carbonitrile; formic acid]: the IC50 on SIK2 turned out to be 0.211 µM; on SIK3 it was 1.03 µM; on SIK1 it was 0.151 µM.

For `Cc1cc(-c2nc(-n3cnc4cc(Nc5ccc(C)nn5)ccc43)ccc2C(C)O)cnn1` (stereo not drawn) [Example 135, 1-[2-(6-Methylpyridazin-4-yl)-6-[5-[(6-methylpyridazin-3-yl)amino]benzimidazol-1-yl]-3-pyridyl]ethanol], the IC50 at SIK2 came to 0.589 µM; on SIK3 it was 0.167 µM; on SIK1, 27.7 µM.

As to `Cc1ccc(Nc2ccc3ncn(-c4ccc(C(C)O)c(-n5cc(C)c(C#N)n5)n4)c3c2)nn1` (stereo not drawn) [Example 169, 1-[3-(1-Hydroxyethyl)-6-[6-[(6-methylpyridazin-3-yl)amino]benzimidazol-1-yl]-2-pyridyl]-4-methyl-pyrazole-3-carbonitrile; formic acid], the IC50 at SIK2 stood at 0.135 µM; on SIK3, 0.0852 µM; at SIK1, 0.613 µM.

Consider `Cc1ccc(Nc2ccc3c(c2)ncn3-c2ccc(C(C)O)c(-c3cn(CC4CC4)nc3C)n2)nn1` (stereo not drawn) [Example 266, 1-[2-[1-(Cyclopropylmethyl)-3-methyl-pyrazol-4-yl]-6-[5-[(6-methylpyridazin-3-yl)amino]benzimidazol-1-yl]-3-pyridyl]ethanol; formic acid], for which the concentration for half-maximal inhibition (IC50) at SIK2 came out at 0.001 µM; on SIK3 it was 0.0014 µM; on SIK1, 0.136 µM.

Consider `Cc1ccc(Nc2ccc3c(c2)ncn3-c2ccc(C(C)O)c(O[C@H]3CCNC3)n2)nn1` (stereo partly drawn) [Example 208, 1-[6-[5-[(6-Methylpyridazin-3-yl)amino]benzimidazol-1-yl]-2-[(3S)-pyrrolidin-3-yl]oxy-3-pyridyl]ethanol], for which the IC50 at SIK2 turned out to be 0.0297 µM; on SIK3 it was 0.0048 µM; on SIK1 it was 0.462 µM.

As for `Cc1ccc(Nc2ccc3c(c2)ncn3-c2ccc(C(C)O)c(-c3nn(CC(F)(F)F)nc3C)n2)nn1` (stereo not drawn) [Example 308, 1-[6-[5-[(6-methylpyridazin-3-yl)amino]benzimidazol-1-yl]-2-[5-methyl-2-(2,2,2-trifluoroethyl)triazol-4-yl]-3-pyridyl]ethanol], the IC50 at SIK2 was 0.0004 µM; at SIK3, 0.0004 µM; on SIK1, 0.058 µM.

For `CCOc1cc(C)n(-c2nc(-n3cnc4ccc(Nc5ccc(C)nn5)cc43)ccc2C(C)O)n1` (stereo not drawn) [Example 134, 1-[2-(3-Ethoxy-5-methyl-pyrazol-1-yl)-6-[6-[(6-methylpyridazin-3-yl)amino]benzimidazol-1-yl]-3-pyridyl]ethanol], the IC50 was determined as 0.345 µM at SIK2, 1.29 µM at SIK3 and 0.426 µM on SIK1.

Turning to `Cc1cc(C#N)nn1-c1nc(-n2cnc3cc(Nc4ccon4)ccc32)ccc1C(C)O` (stereo not drawn) [Example 123, 1-[3-(1-Hydroxyethyl)-6-[5-(isoxazol-3-ylamino)benzimidazol-1-yl]-2-pyridyl]-5-methyl-pyrazole-3-carbonitrile], the IC50 on SIK2 was found to be 0.0099 µM; at SIK3 it was 0.0059 µM; on SIK1, 0.013 µM.
